Our source for the logP values is the OPERA property sets (Mansouri et al. 2018).

SMILES strings stand for the structures.

On to `COc1ccccc1OCC1CN=C(N)O1` (configuration not stated), for which the logP (as a rule, a log measure of how a compound divides between an organic and an aqueous phase) stood at 0.85. Regarding `NC1=NCC(COc2ccccc2Cl)O1` (configuration not stated), the logP came out at 1.77. The value for `NC1=NCC(COc2ccc(Cl)cc2)O1` (configuration not stated) was 2. The value for `NC1=NCC(COc2ccccc2)O1` (configuration not stated) was 1.27; that for `Cc1ccc(OCC2CN=C(N)O2)cc1` (configuration not stated) was 1.79; that for `CN(C)c1cccc(OCC2CN=C(N)O2)c1` (configuration not stated) was 1.4. The value for `Cc1ccccc1OCC1CN=C(N)O1` (configuration not stated) was 1.69. On to `COc1ccc(OCC2CN=C(N)O2)cc1` (configuration not stated), for which the logP was determined as 1.26. Then `NC1=NCC(COc2ccc(N3CCOCC3)cc2)O1` (configuration not stated), with 0.6; and `NC1=NCC(COc2cccc([N+](=O)[O-])c2)O1` (configuration not stated), with 1.23; and `CCOc1ccccc1OCC1CN=C(N)O1` (configuration not stated), with 1.24. Then `NC1=NCC(COc2ccc([N+](=O)[O-])cc2)O1` (configuration not stated), with 1.17.
